The subject of data set [1] is E. coli and P. aeruginosa serine mutants. The experiment in a line: MIC after permeabilizing with polymyxin B nonapeptide. Type of data set: cell-based.
Data set [2] concerns Streptococcus pneumoniae R800. Description: microbe, parasite or virus in culture. Type of data set: cell-based.
Data set [3] concerns Brevibacillus brevis ATCC 8246. Description: microbe, parasite or virus in culture. Type of data set: cell-based. The note with it: ATCC8246.
In a further data set the test system is human HeLa 229 cells. The note with it: none observed up to the highest concentration examined.
A further data set concerns Clostridium bolteae. Description: microbe, parasite or virus in culture. Type of data set: cell-based. The settings on record: Enterocloster bolteae.
In another data set the test system is wild type S. aureus 8325. The experiment in a line: microbe, parasite or virus in culture. Type of data set: cell-based, Staphylococcus aureus.
In data set [4] the target is full-length wild type S. aureus SPase (Pro-variant) (Staphylococcus aureus, UniProt P0A070). Description: Equilibrium binding, arylomycin fluorescence.
The test system of data set [5] is Lactobacillus gasseri ATCC 19992. The experiment in a line: microbe, parasite or virus in culture. The format is cell-based. The note with it: ATCC19992.

≈ marks a conversion by molar mass, not a printed value. Like-named read-outs stand apart in the source and are kept apart here. A value given as a limit tells only on which side of the number the result lay.

By Kd is commonly meant a measure of binding affinity in units of concentration. Low values mean tighter binding, high ones weaker binding. On to `CCCCCCCCCCCCCCCC(=O)N(C)[C@H](CO)C(=O)N[C@H](C)C(=O)NCC(=O)N(C)[C@@H]1C(=O)N[C@@H](C)C(=O)N[C@H](C(=O)O)Cc2ccc(O)c(c2)-c2cc1ccc2O` [Arylomycin C16, arylomycin C16], for which the “fold decrease of MIC on permeabilization” value in data set [1] is listed as at most 4 fold. Moreover, the MIC in data set [2] was 16 µg/mL (≈ 18.2 µM); in data set [2] (Streptococcus pneumoniae, R800, read-out: MIC), 8 µg/mL (≈ 9.08 µM); in data set [2] (listed as arylomycin A-C16), 8 µg/mL (≈ 9.08 µM); in data set [3], over 64 µg/mL; against Clostridium bolteae, over 16 µg/mL; with wild type S. aureus 8325 (Staphylococcus aureus, Resistant strain (wild type), read-out: MIC) it was over 64 µg/mL. For the same compound, the MIC in data set [5] was over 128 µg/mL. Moreover, the “concentration with adverse effects on the human cells” value in the data set with human HeLa 229 cells is over 20000 ng/mL. Also, in the data set on wild type S. aureus 8325, the activity in words result is “no activity”. In addition, the Kd in data set [4] came out at 1.28 ± 0.278 µM.

The values are drawn from patent US20160297851A1, “BROAD SPECTRUM […]” (priority 2012, published 2016).
